Test results as given in ChEMBL document CHEMBL1124314, “Development of phosphonate derivatives of gadolinium chelates for NMR imaging of calcified soft tissues” (J Med Chem, 1989).

Tests used:
Rattus norvegicus [1] = species on record: Rattus norvegicus; test: Biodistribution in rat bone in the presence of 0.10 M GdDTPA-BDP; type: ADME, organism-based, Bone element; conditions: in vivo
Rattus norvegicus [2] = species on record: Rattus norvegicus; test: Biodistribution in rat bone in the presence of GdDTPA-BDP at 1 hr; type: ADME, organism-based, Bone element; conditions: in vivo
Rattus norvegicus [3] = species on record: Rattus norvegicus; test: Biodistribution in rat bone in the presence of GdDTPA-HPDP at 15 min; type: ADME, organism-based, Bone element; conditions: in vivo, 0.25 h
Rattus norvegicus [4] = species on record: Rattus norvegicus; test: Biodistribution in rat bone in the presence of GdDTPA-HPDP at 4 hr; type: ADME, organism-based, Bone element; conditions: in vivo
Rattus norvegicus [5] = species on record: Rattus norvegicus; test: Biodistribution in rat heart in the presence of 0.01 M Gd/0.01 M GdDTPA-AEP; type: ADME, organism-based; conditions: in vivo
Rattus norvegicus [6] = species on record: Rattus norvegicus; test: Biodistribution in rat heart in the presence of 0.01 M GdDTPA-BDP; type: ADME, organism-based; conditions: in vivo
Rattus norvegicus [7] = species on record: Rattus norvegicus; test: Biodistribution in rat heart in the presence of 0.05 M /0.05 M GdDTPA-AEP; type: ADME, organism-based; conditions: in vivo
Rattus norvegicus [8] = species on record: Rattus norvegicus; test: Biodistribution in rat heart in the presence of GdDTPA at 4 hr; type: ADME, organism-based; conditions: in vivo
Rattus norvegicus [9] = species on record: Rattus norvegicus; test: Biodistribution in rat heart in the presence of GdDTPA-HPDP at 1 hr; type: ADME, organism-based; conditions: in vivo
Rattus norvegicus [10] = species on record: Rattus norvegicus; test: Biodistribution in rat heart in the presence of GdDTPA-HPDP at 30 min; type: ADME, organism-based; conditions: in vivo, 0.5 h
Rattus norvegicus [11] = species on record: Rattus norvegicus; test: Biodistribution in rat heart in the presence of GdDTPA-HPDP at 4 hr; type: ADME, organism-based; conditions: in vivo
Rattus norvegicus [12] = species on record: Rattus norvegicus; test: Biodistribution in rat kidney in the presence of 0.10 M GdDTPA-BDP; type: ADME, organism-based; conditions: in vivo
Rattus norvegicus [13] = species on record: Rattus norvegicus; test: Biodistribution in rat kidney in the presence of NAC Gd/0.01 M GdDTPA-HPDP; type: ADME, organism-based; conditions: in vivo
Rattus norvegicus [14] = species on record: Rattus norvegicus; test: Biodistribution in rat liver in the presence of GdDTPA-HPDP at 15 min; type: ADME, organism-based; conditions: in vivo, 0.25 h
Rattus norvegicus [15] = species on record: Rattus norvegicus; test: Biodistribution in rat liver in the presence of GdDTPA-HPDP at 30 min; type: ADME, organism-based; conditions: in vivo, 0.5 h
Rattus norvegicus [16] = species on record: Rattus norvegicus; test: Biodistribution in rat liver in the presence of GdDTPA-HPDP at 4 hr; type: ADME, organism-based; conditions: in vivo
Rattus norvegicus [17] = species on record: Rattus norvegicus; test: Biodistribution in rat muscle in the presence of 0.05 M GdDTPA-BDP; type: ADME, organism-based, Muscle tissue; conditions: in vivo
Rattus norvegicus [18] = species on record: Rattus norvegicus; test: Biodistribution in rat muscle in the presence of 0.10 M GdDTPA-BDP; type: ADME, organism-based, Muscle tissue; conditions: in vivo
Rattus norvegicus [19] = species on record: Rattus norvegicus; test: Biodistribution in rat muscle in the presence of GdDTPA-BDP at 1 hr; type: ADME, organism-based, Muscle tissue; conditions: in vivo
Rattus norvegicus [20] = species on record: Rattus norvegicus; test: Biodistribution in rat muscle in the presence of GdDTPA-BDPat 30 min; type: ADME, organism-based, Muscle tissue; conditions: in vivo, 0.5 h
Rattus norvegicus [21] = species on record: Rattus norvegicus; test: Biodistribution in rat muscle in the presence of GdDTPA-HPDP at 1 hr; type: ADME, organism-based, Muscle tissue; conditions: in vivo
Rattus norvegicus [22] = species on record: Rattus norvegicus; test: Biodistribution in rat muscle in the presence of GdDTPA-HPDP at 4 hr; type: ADME, organism-based, Muscle tissue; conditions: in vivo
Rattus norvegicus [23] = species on record: Rattus norvegicus; test: Biodistribution in rat spleen in the presence of 0.10 M GdDTPA-BDP; type: ADME, organism-based; conditions: in vivo
Rattus norvegicus [24] = species on record: Rattus norvegicus; test: Biodistribution in rat liver in the presence of 0.01 M GdDTPA-BDP; type: ADME, organism-based; conditions: in vivo
Rattus norvegicus [25] = species on record: Rattus norvegicus; test: Biodistribution in rat liver in the presence of 0.01 M/0.01 M GdDTPA-AEP; type: ADME, organism-based; conditions: in vivo
Rattus norvegicus [26] = species on record: Rattus norvegicus; test: Biodistribution in rat liver in the presence of 0.05 M GdDTPA-BDP; type: ADME, organism-based; conditions: in vivo
Rattus norvegicus [27] = species on record: Rattus norvegicus; test: Biodistribution in rat liver in the presence of 0.05 M/0.05 M GdDTPA-AEP; type: ADME, organism-based; conditions: in vivo
Rattus norvegicus [28] = species on record: Rattus norvegicus; test: Biodistribution in rat liver in the presence of GdDTPA at 30 min; type: ADME, organism-based; conditions: in vivo, 0.5 h
Rattus norvegicus [29] = species on record: Rattus norvegicus; test: Biodistribution in rat blood in the presence of GdDTPA-BDP at 4 hr; type: ADME, organism-based; conditions: in vivo
Rattus norvegicus [30] = species on record: Rattus norvegicus; test: Biodistribution in rat blood in the presence of GdDTPA-BDPat 1 hr; type: ADME, organism-based; conditions: in vivo
Rattus norvegicus [31] = species on record: Rattus norvegicus; test: Biodistribution in rat blood in the presence of GdDTPA-HPDP at 30 min; type: ADME, organism-based; conditions: in vivo, 0.5 h
Rattus norvegicus [32] = species on record: Rattus norvegicus; test: Biodistribution in rat blood in the presence of GdDTPA-HPDP at 4 hr; type: ADME, organism-based; conditions: in vivo
Rattus norvegicus [33] = species on record: Rattus norvegicus; test: Biodistribution in rat blood in the presence of GdDTPA-HPDPat 1 hr; type: ADME, organism-based; conditions: in vivo
Rattus norvegicus [34] = species on record: Rattus norvegicus; test: Biodistribution in rat blood in the presence of NAC Gd/0.01 M GdDTPA-HPDP; type: ADME, organism-based; conditions: in vivo
Rattus norvegicus [35] = species on record: Rattus norvegicus; test: Biodistribution in rat bone in the presence of 0.01 M/0.01 M GdDTPA-AEP; type: ADME, organism-based, Bone element; conditions: in vivo
Rattus norvegicus [36] = species on record: Rattus norvegicus; test: Biodistribution in rat bone in the presence of 0.05 M GdDTPA-BDP; type: ADME, organism-based, Bone element; conditions: in vivo
Rattus norvegicus [37] = species on record: Rattus norvegicus; test: Biodistribution in rat blood in the presence of 0.001 M/0.008 M GdDTPA-AEP; type: ADME, organism-based; conditions: in vivo
Rattus norvegicus [38] = species on record: Rattus norvegicus; test: Biodistribution in rat blood in the presence of 0.01 M GdDTPA-BDP; type: ADME, organism-based; conditions: in vivo
Rattus norvegicus [39] = species on record: Rattus norvegicus; test: Biodistribution in rat blood in the presence of 0.05 M GdDTPA-BDP; type: ADME, organism-based; conditions: in vivo
Rattus norvegicus [40] = species on record: Rattus norvegicus; test: Biodistribution in rat blood in the presence of 0.10 M GdDTPA-BDP; type: ADME, organism-based; conditions: in vivo
Rattus norvegicus [41] = species on record: Rattus norvegicus; test: Biodistribution in rat blood in the presence of GdDTPA at 1 hr; type: ADME, organism-based; conditions: in vivo
Rattus norvegicus [42] = species on record: Rattus norvegicus; test: Biodistribution in rat blood in the presence of GdDTPA at 30 min; type: ADME, organism-based; conditions: in vivo, 0.5 h
Rattus norvegicus [43] = species on record: Rattus norvegicus; test: Biodistribution in rat blood in the presence of GdDTPA at 4 hr; type: ADME, organism-based; conditions: in vivo
Rattus norvegicus [44] = species on record: Rattus norvegicus; test: Biodistribution in rat liver in the presence of GdDTPA-HPDP at 1 hr; type: ADME, organism-based; conditions: in vivo
Rattus norvegicus [45] = species on record: Rattus norvegicus; test: Biodistribution in rat blood in the presence of 0.05 M/0.08 M GdDTPA-HPDP; type: ADME, organism-based; conditions: in vivo
Rattus norvegicus [46] = species on record: Rattus norvegicus; test: Biodistribution in rat bone in the presence of GdDTPA at 20 min; conditions: in vivo, 0.33 h
Rattus norvegicus [47] = species on record: Rattus norvegicus; test: Biodistribution in rat blood in the presence of GdDTPA at 20 min; conditions: in vivo, 0.33 h
Rattus norvegicus [48] = species on record: Rattus norvegicus; test: Biodistribution in rat heart in the presence of GdDTPA-BDP at 1 hr; conditions: in vivo
Rattus norvegicus [49] = species on record: Rattus norvegicus; test: Biodistribution in rat heart in the presence of GdDTPA-BDP at 4 hr; conditions: in vivo
Rattus norvegicus [50] = species on record: Rattus norvegicus; test: Biodistribution in rat blood in the presence of GdDTPA-BDP at 1 hr; conditions: in vivo
Rattus norvegicus [51] = species on record: Rattus norvegicus; test: Biodistribution in rat blood in the presence of GdDTPA-BDP at 20 min; conditions: in vivo, 0.33 h
Rattus norvegicus [52] = species on record: Rattus norvegicus; test: Biodistribution in rat liver in the presence of GdDTPA-BDP at 20 min; conditions: in vivo, 0.33 h
Rattus norvegicus [53] = species on record: Rattus norvegicus; test: Biodistribution in rat heart in the presence of 0.10 M/0.11 M GdDTPA-HPDP; conditions: in vivo
Rattus norvegicus [54] = species on record: Rattus norvegicus; test: Biodistribution in rat bone in the presence of 0.001 M/0.008 M GdDTPA-AEP; conditions: in vivo
Rattus norvegicus [55] = species on record: Rattus norvegicus; test: Biodistribution in rat blood in the presence of 0.10 M/0.11 M GdDTPA-HPDP; conditions: in vivo

## O=C(O)CN(CCN(CC(=O)O)CC(=O)O)CCN(CC(=O)O)CC(=O)O [PENTETIC ACID]
Rattus norvegicus [1]
  ID/organ: 13.3%
Rattus norvegicus [2]
  ID/organ: 17.6%
Rattus norvegicus [3]
  ID/organ: 15.5%
Rattus norvegicus [4]
  ID/organ: 18.1%
Rattus norvegicus [5]
  ID/organ: 0.012%
Rattus norvegicus [6]
  ID/organ: 0.129%
Rattus norvegicus [7]
  ID/organ: 0.016%
Rattus norvegicus [8]
  ID/organ: 0.002%
Rattus norvegicus [9]
  ID/organ: 0.011%
Rattus norvegicus [10]
  ID/organ: 0.04%
Rattus norvegicus [11]
  ID/organ: 0.003%
Rattus norvegicus [12]
  ID/organ: 0.29%
Rattus norvegicus [13]
  ID/organ: 0.273%
Rattus norvegicus [14]
  ID/organ: 0.745%
Rattus norvegicus [15]
  ID/organ: 0.519%
Rattus norvegicus [16]
  ID/organ: 0.202%
Rattus norvegicus [17]
  ID/organ: 4.47%
Rattus norvegicus [18]
  ID/organ: 3.59%
Rattus norvegicus [19]
  ID/organ: 4.47%
Rattus norvegicus [20]
  ID/organ: 5.17%
Rattus norvegicus [21]
  ID/organ: 0.889%
Rattus norvegicus [22]
  ID/organ: 0.223%
Rattus norvegicus [23]
  ID/organ: 0.013%
Rattus norvegicus [24]
  ID/organ: 5.21%
Rattus norvegicus [25]
  ID/organ: 18.3%
Rattus norvegicus [26]
  ID/organ: 1.23%
Rattus norvegicus [27]
  ID/organ: 14.8%
Rattus norvegicus [28]
  ID/organ: 0.418%
Rattus norvegicus [29]
  ID/organ: 2.26%
Rattus norvegicus [30]
  ID/organ: 2.53%
Rattus norvegicus [31]
  ID/organ: 2.46%
Rattus norvegicus [32]
  ID/organ: 0.068%
Rattus norvegicus [33]
  ID/organ: 0.543%
Rattus norvegicus [34]
  ID/organ: 0.26%
Rattus norvegicus [35]
  ID/organ: 0.641%
Rattus norvegicus [36]
  ID/organ: 16.3%
Rattus norvegicus [37]
  ID/organ: 0.143%
Rattus norvegicus [38]
  ID/organ: 9.49%
Rattus norvegicus [39]
  ID/organ: 2.53%
Rattus norvegicus [40]
  ID/organ: 1.62%
Rattus norvegicus [41]
  ID/organ: 0.094%
Rattus norvegicus [42]
  ID/organ: 1.02%
Rattus norvegicus [43]
  ID/organ: 0.005%
Rattus norvegicus [44]
  ID/organ: 0.201%
Rattus norvegicus [45]
  ID/organ: 0.27%
Rattus norvegicus [46]
  ID/organ: 3.5%
Rattus norvegicus [47]
  ID/organ: 6.03%
Rattus norvegicus [48]
  ID/organ: 0.055%
Rattus norvegicus [49]
  ID/organ: 0.037%
Rattus norvegicus [50]
  ID/organ: 2.74%
Rattus norvegicus [51]
  ID/organ: 4.43%
Rattus norvegicus [52]
  ID/organ: 1.02%
Rattus norvegicus [53]
  ID/organ: 0.006%
Rattus norvegicus [54]
  ID/organ: 0.264%
Rattus norvegicus [55]
  ID/organ: 0.19%
